Assay results as given in publication PMC3961306, “Comparison of the Cancer Gene Targeting and Biochemical Selectivities of All Targeted Kinase Inhibitors Approved for Clinical Use” (PLoS ONE, 2014).
Where two headings read alike, the source gives them in different places.

Legend:
[1] = test system: forty-four human cancer cell lines; experiment: Cell proliferation assay (ATPlite, 72 hours) in the 44 cell line Oncolines panel; assay type: cell-based; conditions: Homo sapiens
[2] = target: panel of more than 300 wild-type and mutant kinases (313 kinase panel) (Homo sapiens, UniProt P00519); experiment: Kinase profiling in a biochemical assay panel (mobility shift assays and ELISA), %-inhibition at 1 μM; selectivity entropy; conditions: 1 µM
[3] = target: panel of more than 300 wild-type and mutant kinases (313 kinase panel) (Homo sapiens, UniProt P00519, E255K); experiment: as above; conditions: 1 µM
[4] = target: panel of more than 300 wild-type and mutant kinases (313 kinase panel) (Homo sapiens, UniProt P00533); experiment: as above; conditions: kinase EGFR; compound at 1 μM
[5] = target: panel of more than 300 wild-type and mutant kinases (313 kinase panel) (Homo sapiens, UniProt P00533, L858R); experiment: as above; conditions: kinase EGFR(L858R); compound at 1 μM
[6] = target: panel of more than 300 wild-type and mutant kinases (313 kinase panel) (Homo sapiens, UniProt P00533, L858R/T790M); experiment: as above; conditions: kinase EGFR(T790M/L858R); compound at 1 μM
[7] = target: panel of more than 300 wild-type and mutant kinases (313 kinase panel) (Homo sapiens, UniProt P00533, L861Q); experiment: as above; conditions: kinase EGFR(L861Q); compound at 1 μM
[8] = target: panel of more than 300 wild-type and mutant kinases (313 kinase panel) (Homo sapiens, UniProt P00533, T790M); experiment: as above; conditions: kinase EGFR(T790M); compound at 1 μM
[9] = target: panel of more than 300 wild-type and mutant kinases (313 kinase panel) (Homo sapiens, UniProt P07947, T348I); experiment: as above; conditions: 1 µM
[10] = target: panel of more than 300 wild-type and mutant kinases (313 kinase panel) (Homo sapiens, UniProt P11362, V561M); experiment: as above; conditions: kinase FGFR1(V561M); compound at 1 μM
[11] = target: panel of more than 300 wild-type and mutant kinases (313 kinase panel) (Homo sapiens, UniProt P15056); experiment: as above; conditions: kinase BRAF; 1 μM compound
[12] = target: panel of more than 300 wild-type and mutant kinases (313 kinase panel) (Homo sapiens, UniProt P15056, V600E); experiment: as above; conditions: kinase BRAF(V600E); 1 μM compound
[13] = target: panel of more than 300 wild-type and mutant kinases (313 kinase panel) (Homo sapiens, UniProt P22612); experiment: as above; conditions: kinase PKACγ; 1 μM
[14] = target: panel of more than 300 wild-type and mutant kinases (313 kinase panel) (Homo sapiens, UniProt P35968); experiment: as above; conditions: kinase KDR; compound at 1 μM
[15] = target: panel of more than 300 wild-type and mutant kinases (313 kinase panel) (Homo sapiens, UniProt Q9UM73, R1275Q); experiment: as above; conditions: 1 µM
Chain of panel of more than 300 wild-type and mutant kinases (313 kinase panel) (Homo sapiens, UniProt Q9UM73, R1275Q) (Q9UM73 19-1620 R1275Q): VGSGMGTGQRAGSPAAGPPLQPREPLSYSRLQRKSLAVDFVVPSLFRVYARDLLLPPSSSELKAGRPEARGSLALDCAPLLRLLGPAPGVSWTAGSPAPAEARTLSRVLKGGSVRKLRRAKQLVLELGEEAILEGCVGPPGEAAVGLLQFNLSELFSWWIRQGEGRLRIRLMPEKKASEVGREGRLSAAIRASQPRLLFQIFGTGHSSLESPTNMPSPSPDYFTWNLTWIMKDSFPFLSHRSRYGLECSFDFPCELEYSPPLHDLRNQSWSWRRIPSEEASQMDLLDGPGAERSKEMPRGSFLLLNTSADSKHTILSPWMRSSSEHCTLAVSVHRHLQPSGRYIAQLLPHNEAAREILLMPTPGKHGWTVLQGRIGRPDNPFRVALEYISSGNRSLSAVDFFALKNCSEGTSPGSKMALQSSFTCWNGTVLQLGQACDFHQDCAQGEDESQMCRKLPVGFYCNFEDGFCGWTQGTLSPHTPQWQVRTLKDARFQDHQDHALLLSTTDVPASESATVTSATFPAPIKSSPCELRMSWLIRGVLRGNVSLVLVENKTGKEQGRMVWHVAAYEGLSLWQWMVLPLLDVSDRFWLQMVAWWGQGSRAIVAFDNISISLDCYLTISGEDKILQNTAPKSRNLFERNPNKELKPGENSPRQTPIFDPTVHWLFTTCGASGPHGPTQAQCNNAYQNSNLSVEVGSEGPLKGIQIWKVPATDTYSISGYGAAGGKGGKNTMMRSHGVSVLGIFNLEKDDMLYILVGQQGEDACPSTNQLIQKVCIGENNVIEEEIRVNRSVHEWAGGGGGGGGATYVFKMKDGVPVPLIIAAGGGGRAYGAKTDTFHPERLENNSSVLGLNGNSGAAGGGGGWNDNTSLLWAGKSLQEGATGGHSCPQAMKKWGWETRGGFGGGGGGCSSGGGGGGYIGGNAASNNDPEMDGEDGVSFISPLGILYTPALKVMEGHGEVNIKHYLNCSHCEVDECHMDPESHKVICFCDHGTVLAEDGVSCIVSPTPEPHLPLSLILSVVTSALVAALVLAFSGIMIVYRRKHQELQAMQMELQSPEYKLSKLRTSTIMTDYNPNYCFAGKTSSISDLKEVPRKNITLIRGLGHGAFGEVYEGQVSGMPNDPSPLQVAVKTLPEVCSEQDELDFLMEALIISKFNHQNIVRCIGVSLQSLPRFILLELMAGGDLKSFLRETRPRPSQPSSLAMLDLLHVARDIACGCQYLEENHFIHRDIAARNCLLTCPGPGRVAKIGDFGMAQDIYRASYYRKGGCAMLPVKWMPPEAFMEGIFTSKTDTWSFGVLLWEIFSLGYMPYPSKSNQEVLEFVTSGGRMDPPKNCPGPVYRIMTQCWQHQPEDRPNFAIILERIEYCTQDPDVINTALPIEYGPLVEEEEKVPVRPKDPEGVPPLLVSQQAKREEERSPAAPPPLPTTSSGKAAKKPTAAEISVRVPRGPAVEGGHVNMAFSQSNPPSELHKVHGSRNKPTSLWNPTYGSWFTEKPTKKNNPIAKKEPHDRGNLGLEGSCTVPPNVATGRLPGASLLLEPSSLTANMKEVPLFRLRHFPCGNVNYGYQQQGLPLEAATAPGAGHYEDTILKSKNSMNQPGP

Chain of panel of more than 300 wild-type and mutant kinases (313 kinase panel) (Homo sapiens, UniProt P15056) (P15056 whole entry, stated change not applied): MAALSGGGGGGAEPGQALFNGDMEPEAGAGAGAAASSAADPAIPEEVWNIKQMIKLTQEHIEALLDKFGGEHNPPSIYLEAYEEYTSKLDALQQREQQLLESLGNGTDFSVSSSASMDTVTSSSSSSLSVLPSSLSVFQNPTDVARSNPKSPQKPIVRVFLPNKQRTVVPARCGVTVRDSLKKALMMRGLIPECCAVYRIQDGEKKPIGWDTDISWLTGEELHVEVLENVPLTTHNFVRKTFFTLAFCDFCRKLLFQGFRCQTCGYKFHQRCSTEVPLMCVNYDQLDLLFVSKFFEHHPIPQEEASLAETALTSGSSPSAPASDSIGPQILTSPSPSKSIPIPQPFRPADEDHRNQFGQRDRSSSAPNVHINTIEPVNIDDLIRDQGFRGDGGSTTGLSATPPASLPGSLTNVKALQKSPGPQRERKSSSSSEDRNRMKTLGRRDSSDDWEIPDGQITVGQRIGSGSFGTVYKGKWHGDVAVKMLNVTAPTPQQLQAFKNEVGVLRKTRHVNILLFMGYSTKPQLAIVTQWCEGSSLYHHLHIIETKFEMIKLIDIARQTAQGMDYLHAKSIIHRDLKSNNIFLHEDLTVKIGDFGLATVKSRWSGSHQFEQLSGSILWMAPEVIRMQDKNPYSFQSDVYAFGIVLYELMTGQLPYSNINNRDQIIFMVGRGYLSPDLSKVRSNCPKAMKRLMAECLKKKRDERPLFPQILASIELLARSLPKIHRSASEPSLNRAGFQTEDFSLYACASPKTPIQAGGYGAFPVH
Chain of panel of more than 300 wild-type and mutant kinases (313 kinase panel) (Homo sapiens, UniProt P00533, L858R/T790M) (P00533 25-1210 T790M/L858R): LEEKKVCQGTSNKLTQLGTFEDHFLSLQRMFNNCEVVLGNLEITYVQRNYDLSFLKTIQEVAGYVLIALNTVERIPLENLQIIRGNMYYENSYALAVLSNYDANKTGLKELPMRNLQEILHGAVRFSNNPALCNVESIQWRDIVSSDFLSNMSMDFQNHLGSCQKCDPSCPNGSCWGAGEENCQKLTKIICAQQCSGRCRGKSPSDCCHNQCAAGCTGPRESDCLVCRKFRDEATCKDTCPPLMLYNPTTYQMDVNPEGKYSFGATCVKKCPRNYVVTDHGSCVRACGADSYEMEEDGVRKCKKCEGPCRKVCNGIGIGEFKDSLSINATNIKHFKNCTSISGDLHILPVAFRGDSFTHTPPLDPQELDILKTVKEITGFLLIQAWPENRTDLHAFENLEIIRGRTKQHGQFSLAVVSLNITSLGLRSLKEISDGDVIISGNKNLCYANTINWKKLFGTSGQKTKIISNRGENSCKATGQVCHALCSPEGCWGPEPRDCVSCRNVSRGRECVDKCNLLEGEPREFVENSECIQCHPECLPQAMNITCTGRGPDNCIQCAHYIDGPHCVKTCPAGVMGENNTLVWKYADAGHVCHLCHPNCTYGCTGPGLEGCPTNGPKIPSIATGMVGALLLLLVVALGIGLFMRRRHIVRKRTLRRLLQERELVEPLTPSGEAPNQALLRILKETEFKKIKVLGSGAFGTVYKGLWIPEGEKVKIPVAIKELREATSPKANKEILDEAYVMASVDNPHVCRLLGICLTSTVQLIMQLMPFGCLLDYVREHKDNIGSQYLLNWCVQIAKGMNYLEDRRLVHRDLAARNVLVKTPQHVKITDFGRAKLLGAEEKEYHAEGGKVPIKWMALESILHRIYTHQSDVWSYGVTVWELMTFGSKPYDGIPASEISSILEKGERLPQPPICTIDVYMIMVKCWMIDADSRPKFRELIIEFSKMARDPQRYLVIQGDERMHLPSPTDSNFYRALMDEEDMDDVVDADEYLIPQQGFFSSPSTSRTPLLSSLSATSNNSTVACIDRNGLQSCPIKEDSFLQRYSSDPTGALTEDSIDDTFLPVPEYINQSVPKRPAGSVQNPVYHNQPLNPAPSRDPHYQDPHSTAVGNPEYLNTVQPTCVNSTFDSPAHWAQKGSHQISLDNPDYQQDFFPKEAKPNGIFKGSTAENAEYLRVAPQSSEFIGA
Chain of panel of more than 300 wild-type and mutant kinases (313 kinase panel) (Homo sapiens, UniProt P00533) (P00533 25-1210, stated change not applied): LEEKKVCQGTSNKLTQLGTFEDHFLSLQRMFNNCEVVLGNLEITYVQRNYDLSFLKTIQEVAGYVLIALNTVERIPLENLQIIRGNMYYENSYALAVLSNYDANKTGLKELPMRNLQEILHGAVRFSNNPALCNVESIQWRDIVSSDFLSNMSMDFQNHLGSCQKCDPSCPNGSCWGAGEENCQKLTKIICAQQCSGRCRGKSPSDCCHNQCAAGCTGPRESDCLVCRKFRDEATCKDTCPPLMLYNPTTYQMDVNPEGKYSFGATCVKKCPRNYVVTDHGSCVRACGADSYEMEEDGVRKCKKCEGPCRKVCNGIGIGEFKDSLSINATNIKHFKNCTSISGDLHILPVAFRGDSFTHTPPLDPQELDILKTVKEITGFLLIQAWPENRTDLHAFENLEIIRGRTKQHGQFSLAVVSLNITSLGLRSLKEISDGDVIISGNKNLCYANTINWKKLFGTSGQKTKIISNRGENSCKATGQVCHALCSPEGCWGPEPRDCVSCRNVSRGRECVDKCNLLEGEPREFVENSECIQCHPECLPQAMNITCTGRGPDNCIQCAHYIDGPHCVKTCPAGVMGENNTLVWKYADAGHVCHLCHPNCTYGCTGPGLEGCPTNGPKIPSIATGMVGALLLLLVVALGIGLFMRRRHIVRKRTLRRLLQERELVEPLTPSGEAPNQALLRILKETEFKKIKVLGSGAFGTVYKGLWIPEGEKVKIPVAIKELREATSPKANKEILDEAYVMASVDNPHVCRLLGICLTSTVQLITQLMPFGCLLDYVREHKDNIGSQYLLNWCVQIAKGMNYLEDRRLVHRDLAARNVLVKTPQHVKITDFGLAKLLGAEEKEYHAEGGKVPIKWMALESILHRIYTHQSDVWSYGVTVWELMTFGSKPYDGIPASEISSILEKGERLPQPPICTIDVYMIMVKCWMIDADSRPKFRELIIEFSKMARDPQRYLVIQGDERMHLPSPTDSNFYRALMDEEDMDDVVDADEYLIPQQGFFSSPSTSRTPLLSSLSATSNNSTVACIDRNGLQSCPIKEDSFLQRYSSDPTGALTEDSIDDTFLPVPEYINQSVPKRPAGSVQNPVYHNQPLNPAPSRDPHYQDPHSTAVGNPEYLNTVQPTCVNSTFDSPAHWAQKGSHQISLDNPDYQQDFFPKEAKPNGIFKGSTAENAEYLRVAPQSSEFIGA
Chain of panel of more than 300 wild-type and mutant kinases (313 kinase panel) (Homo sapiens, UniProt P15056, V600E) (P15056 whole entry V600E): as the sequence (P15056 whole entry, stated change not applied) above, with V600E counted along it

N#CC[C@H](C1CCCC1)n1cc(-c2ncnc3[nH]ccc23)cn1 [ruxolitinib]
IC50 ([1]; 4-4 cell, read-out: cell panel IC50, J82): > 31.6 µM | IC50 ([1]; 4-4 cell, read-out: cell panel IC50, PA-1): 26.9 µM | IC50 ([1]; 4-4 cell, read-out: cell panel IC50, SJCRH30): 25.4 µM | IC50 ([1]; 4-4 cell, read-out: cell panel IC50, SR): 4.44 µM | IC50 ([1]; 769-P, read-out: cell panel IC50, 769-P): 18.4 µM | IC50 ([1]; 786-0, read-out: cell panel IC50, 786-0): > 31.6 µM | IC50 ([1]; A 172, read-out: cell panel IC50, A-172): 31.5 µM | IC50 ([1]; A204, read-out: cell panel IC50, A-204): > 31.6 µM | IC50 ([1]; A498, read-out: cell panel IC50, A-498): > 31.6 µM | IC50 ([1]; A549, read-out: cell panel IC50, A-549): 21.9 µM | IC50 ([1]; A-375, read-out: cell panel IC50, A375): > 31.6 µM | IC50 ([1]; A-427, read-out: cell panel IC50, A-427): 11.7 µM | IC50 ([1]; ACHN, read-out: cell panel IC50, ACHN): > 31.6 µM | IC50 ([1]; AN3-CA, read-out: cell panel IC50, AN3 CA): 9.88 µM | IC50 ([1]; AU565, read-out: cell panel IC50, AU-565): 28.3 µM | IC50 ([1]; BT-20, read-out: cell panel IC50, BT-20): > 31.6 µM | IC50 ([1]; BT-549, read-out: cell panel IC50, BT-549): > 31.6 µM | IC50 ([1]; BXPC-3, read-out: cell panel IC50, BxPC-3): 16.2 µM | IC50 ([1]; C-33-A, read-out: cell panel IC50, C-33 A): 9.4 µM | IC50 ([1]; CAL-27, read-out: cell panel IC50, CAL 27): > 31.6 µM | IC50 ([1]; CCRF-CEM, read-out: cell panel IC50, CCRF-CEM): 29 µM | IC50 ([1]; DLD-1, read-out: cell panel IC50, DLD-1): 31.1 µM | IC50 ([1]; FaDu, read-out: cell panel IC50, FaDu): > 31.6 µM | IC50 ([1]; HCT-15, read-out: cell panel IC50, HCT-15): 25.3 µM | IC50 ([1]; HCT-116, read-out: cell panel IC50, HCT-116): 30 µM | IC50 ([1]; Hs-578T, read-out: cell panel IC50, Hs 578T): > 31.6 µM | IC50 ([1]; Jurkat E6.1, read-out: cell panel IC50, Jurkat E6.1): 21.5 µM | IC50 ([1]; K562, read-out: cell panel IC50, K-562): 26.4 µM | IC50 ([1]; LS174T, read-out: cell panel IC50, LS 174T): 30.8 µM | IC50 ([1]; LoVo, read-out: cell panel IC50, LoVo): 24.4 µM | IC50 ([1]; MG-63, read-out: cell panel IC50, MG-63): 26.2 µM | IC50 ([1]; MOLT-4, read-out: cell panel IC50, MOLT-4): 21.8 µM | IC50 ([1]; MeWo, read-out: cell panel IC50, MeWo): > 31.6 µM | IC50 ([1]; NCI-H82, read-out: cell panel IC50, NCI-H82): 21 µM | IC50 ([1]; NCI-H460, read-out: cell panel IC50, NCI-H460): 27 µM | IC50 ([1]; OVCAR-3, read-out: cell panel IC50, OVCAR-3): > 31.6 µM | IC50 ([1]; RPMI-7951, read-out: cell panel IC50, RPMI-7951): 15.6 µM | IC50 ([1]; SHP77, read-out: cell panel IC50, SHP-77): 31.2 µM | IC50 ([1]; SK-N-AS, read-out: cell panel IC50, SK-N-AS): 21.1 µM | IC50 ([1]; SW48, read-out: cell panel IC50, SW48): 19.5 µM | IC50 ([1]; SW480, read-out: cell panel IC50, SW480): > 31.6 µM | IC50 ([1]; SW-620, read-out: cell panel IC50, SW620): 28.4 µM | IC50 ([1]; U2OS, read-out: cell panel IC50, U-2 OS): 25.1 µM | IC50 ([1]; U-87 MG, 72 h, read-out: IC50 in cell proliferation assay (table S5 cellpanel data)): > 31.6 µM | %-inhibition, ABL [2]: 5% | %-inhibition, ABL(E255K) [3]: 0.0579% | %-inhibition of EGFR [4]: -0.278% | %-inhibition of EGFR(L858R) [5]: -4% | %-inhibition of EGFR(T790M/L858R) [6]: -0.336% | %-inhibition of EGFR(L861Q) [7]: -3.22% | %-inhibition of EGFR(T790M) [8]: -8% | %-inhibition of YES(T348I) [9]: 5% | %-inhibition of FGFR1(V561M) [10]: 50% | %-inhibition, BRAF [11]: 14% | %-inhibition, BRAF(V600E) [12]: 6% | %-inhibition of PKACγ [13]: 11% | %-inhibition of KDR [14]: 6.52% | %-inhibition, ALK(R1275Q) [15]: 49%
